According to the kinase profiling compilation of Christmann-Franck et al. (2016):

Legend:
Test in all cases: radiometric filter-binding kinase assay
PKN2 (human) = PKN2 (human) (UniProt Q16513)
GCK (human) = GCK (human) (UniProt Q12851)
MAPKAPK2 (human) = MAPKAPK2 (human) (UniProt P49137)
INSRR (human) = INSRR (human) (UniProt P14616)
YES1 (human) = YES1 (human) (UniProt P07947)
EEF2K (human) = EEF2K (human) (UniProt O00418)
STK3 (human) = STK3 (human) (UniProt Q13188)
MAP2K1 (human) = MAP2K1 (human) (UniProt Q02750)
Chain of MAP2K1 (human) (Q02750 whole entry, looked up): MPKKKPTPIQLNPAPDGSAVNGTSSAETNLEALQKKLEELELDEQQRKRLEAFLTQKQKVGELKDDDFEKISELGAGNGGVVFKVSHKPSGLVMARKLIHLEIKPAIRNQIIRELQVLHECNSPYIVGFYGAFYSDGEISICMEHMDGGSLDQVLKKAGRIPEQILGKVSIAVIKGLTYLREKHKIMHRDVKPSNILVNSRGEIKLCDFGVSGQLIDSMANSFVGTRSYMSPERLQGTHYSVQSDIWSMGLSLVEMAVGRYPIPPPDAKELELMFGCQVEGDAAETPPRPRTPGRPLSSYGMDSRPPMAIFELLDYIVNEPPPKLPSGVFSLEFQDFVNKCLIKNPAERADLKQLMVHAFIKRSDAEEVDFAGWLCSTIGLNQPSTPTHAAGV

MAPK9 (human) = MAPK9 (human) (UniProt P45984)
Chain of MAPK9 (human) (P45984 whole entry, looked up): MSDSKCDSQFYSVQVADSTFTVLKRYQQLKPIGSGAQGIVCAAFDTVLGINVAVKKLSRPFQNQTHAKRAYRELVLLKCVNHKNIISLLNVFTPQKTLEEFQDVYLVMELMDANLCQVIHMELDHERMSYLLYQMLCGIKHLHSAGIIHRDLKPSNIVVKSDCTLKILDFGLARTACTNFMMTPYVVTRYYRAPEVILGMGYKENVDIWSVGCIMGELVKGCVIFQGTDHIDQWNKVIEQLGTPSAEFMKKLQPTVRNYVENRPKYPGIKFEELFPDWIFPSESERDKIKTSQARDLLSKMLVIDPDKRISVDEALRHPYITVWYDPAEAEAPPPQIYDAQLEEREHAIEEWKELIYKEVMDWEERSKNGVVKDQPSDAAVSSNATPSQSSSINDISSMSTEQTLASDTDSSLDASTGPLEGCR

MARK4 (human) = MARK4 (human) (UniProt Q96L34)
Chain of MARK4 (human) (Q96L34 whole entry, looked up): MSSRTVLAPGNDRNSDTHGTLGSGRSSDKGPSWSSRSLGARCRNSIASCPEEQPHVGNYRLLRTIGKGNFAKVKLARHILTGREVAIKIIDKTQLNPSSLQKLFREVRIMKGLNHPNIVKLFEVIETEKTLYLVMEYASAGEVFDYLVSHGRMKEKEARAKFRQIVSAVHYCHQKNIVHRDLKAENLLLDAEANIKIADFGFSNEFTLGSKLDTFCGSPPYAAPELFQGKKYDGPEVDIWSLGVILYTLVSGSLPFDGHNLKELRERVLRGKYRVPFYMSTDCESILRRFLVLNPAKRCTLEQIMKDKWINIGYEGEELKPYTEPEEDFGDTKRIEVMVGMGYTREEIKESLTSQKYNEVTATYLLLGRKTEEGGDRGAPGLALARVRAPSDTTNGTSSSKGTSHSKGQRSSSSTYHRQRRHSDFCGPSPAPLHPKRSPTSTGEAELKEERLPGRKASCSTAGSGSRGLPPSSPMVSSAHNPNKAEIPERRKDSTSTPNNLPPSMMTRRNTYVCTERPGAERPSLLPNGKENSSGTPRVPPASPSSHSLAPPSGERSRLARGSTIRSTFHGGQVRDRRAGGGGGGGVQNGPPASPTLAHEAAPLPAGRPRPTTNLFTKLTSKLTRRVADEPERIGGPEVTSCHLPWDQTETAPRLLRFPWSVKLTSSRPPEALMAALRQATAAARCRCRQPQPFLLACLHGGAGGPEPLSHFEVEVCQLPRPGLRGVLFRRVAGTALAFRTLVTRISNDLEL

PIM1 (human) = PIM1 (human) (UniProt P11309)
CSNK2A1 (human) = CSNK2A1 (human) (UniProt P68400)
Chain of CSNK2A1 (human) (P68400 whole entry, looked up): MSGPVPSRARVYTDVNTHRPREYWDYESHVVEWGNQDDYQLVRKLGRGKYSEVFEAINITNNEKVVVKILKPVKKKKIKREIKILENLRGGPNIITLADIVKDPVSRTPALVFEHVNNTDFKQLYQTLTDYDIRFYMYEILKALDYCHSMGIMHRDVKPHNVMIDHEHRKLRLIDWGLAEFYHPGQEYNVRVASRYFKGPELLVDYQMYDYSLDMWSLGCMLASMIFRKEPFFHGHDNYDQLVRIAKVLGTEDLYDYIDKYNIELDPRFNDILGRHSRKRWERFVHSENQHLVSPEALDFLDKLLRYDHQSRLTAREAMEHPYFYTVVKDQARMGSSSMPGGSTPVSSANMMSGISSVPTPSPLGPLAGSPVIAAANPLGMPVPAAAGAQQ

MYLK (human) = MYLK (human) (UniProt Q15746)
PAK6 (human) = PAK6 (human) (UniProt Q9NQU5)
PIM3 (human) = PIM3 (human) (UniProt Q86V86)
[1] = tested on: RPS6KB1 (human), P23443 [T412E]
IKBKB (human) = IKBKB (human) (UniProt O14920)
TBK1 (human) = TBK1 (human) (UniProt Q9UHD2)
CHEK1 (human) = CHEK1 (human) (UniProt O14757)
MAP3K9 (human) = MAP3K9 (human) (UniProt P80192)
RPS6KA5 KD1 KD2 (human) = RPS6KA5 KD1 KD2 (human) (UniProt O75582)
MKNK2 (human) = MKNK2 (human) (UniProt Q9HBH9)
Chain of MKNK2 (human) (Q9HBH9 whole entry, looked up): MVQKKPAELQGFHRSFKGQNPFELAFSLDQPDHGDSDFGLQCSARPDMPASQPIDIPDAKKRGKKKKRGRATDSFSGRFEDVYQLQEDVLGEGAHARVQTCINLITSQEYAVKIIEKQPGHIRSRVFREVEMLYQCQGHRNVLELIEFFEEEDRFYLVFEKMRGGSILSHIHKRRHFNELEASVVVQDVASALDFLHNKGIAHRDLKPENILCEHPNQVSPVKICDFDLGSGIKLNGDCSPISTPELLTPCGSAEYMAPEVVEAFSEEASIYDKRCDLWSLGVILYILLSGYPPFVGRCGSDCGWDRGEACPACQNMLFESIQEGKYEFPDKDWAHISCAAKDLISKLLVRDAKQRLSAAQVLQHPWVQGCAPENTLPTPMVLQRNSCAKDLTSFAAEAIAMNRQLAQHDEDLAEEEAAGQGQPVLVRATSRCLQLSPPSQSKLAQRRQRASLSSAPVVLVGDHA

CDK2 CCNA2 (human) = CDK2 CCNA2 (human) (UniProt P20248+P24941)
TTK (human) = TTK (human) (UniProt P33981)
NEK6 (human) = NEK6 (human) (UniProt Q9HC98)
BTK (human) = BTK (human) (UniProt Q06187)
[2] = tested on: PAK2 (human), Q13177 [T402E]
PIM2 (human) = PIM2 (human) (UniProt Q9P1W9)
Chain of PIM2 (human) (Q9P1W9 whole entry, looked up): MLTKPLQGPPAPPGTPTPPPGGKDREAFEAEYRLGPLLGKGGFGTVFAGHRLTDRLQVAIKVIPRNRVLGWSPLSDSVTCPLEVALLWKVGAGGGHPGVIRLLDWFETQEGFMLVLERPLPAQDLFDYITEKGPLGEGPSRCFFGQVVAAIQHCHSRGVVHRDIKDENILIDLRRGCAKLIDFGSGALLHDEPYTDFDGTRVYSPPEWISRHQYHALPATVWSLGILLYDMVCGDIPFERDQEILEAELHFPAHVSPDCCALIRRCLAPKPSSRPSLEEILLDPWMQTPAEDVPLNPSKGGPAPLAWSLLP

SRPK1 (human) = SRPK1 (human) (UniProt Q96SB4)
MARK3 (human) = MARK3 (human) (UniProt P27448)
Chain of MARK3 (human) (P27448 whole entry, looked up): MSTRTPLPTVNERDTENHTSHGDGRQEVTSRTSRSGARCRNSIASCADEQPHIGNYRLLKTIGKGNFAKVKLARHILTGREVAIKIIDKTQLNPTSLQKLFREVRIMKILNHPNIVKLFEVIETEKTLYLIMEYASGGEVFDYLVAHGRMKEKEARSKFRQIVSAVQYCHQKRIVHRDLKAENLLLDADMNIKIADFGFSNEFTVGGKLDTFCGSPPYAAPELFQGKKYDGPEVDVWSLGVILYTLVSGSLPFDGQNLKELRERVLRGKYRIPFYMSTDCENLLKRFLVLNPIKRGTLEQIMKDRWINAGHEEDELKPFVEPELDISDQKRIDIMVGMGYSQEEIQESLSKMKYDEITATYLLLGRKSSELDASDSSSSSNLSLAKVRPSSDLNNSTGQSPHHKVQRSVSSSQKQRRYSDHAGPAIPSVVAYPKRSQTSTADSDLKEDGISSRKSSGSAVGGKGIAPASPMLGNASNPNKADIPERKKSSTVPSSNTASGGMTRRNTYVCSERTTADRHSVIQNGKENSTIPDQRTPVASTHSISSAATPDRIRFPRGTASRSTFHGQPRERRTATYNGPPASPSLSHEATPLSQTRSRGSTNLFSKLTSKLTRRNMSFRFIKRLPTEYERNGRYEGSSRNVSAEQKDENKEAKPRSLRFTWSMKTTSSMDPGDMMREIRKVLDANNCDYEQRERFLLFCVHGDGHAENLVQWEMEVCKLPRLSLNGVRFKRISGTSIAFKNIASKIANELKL

Chain of YES1 (human) (P07947 whole entry, looked up): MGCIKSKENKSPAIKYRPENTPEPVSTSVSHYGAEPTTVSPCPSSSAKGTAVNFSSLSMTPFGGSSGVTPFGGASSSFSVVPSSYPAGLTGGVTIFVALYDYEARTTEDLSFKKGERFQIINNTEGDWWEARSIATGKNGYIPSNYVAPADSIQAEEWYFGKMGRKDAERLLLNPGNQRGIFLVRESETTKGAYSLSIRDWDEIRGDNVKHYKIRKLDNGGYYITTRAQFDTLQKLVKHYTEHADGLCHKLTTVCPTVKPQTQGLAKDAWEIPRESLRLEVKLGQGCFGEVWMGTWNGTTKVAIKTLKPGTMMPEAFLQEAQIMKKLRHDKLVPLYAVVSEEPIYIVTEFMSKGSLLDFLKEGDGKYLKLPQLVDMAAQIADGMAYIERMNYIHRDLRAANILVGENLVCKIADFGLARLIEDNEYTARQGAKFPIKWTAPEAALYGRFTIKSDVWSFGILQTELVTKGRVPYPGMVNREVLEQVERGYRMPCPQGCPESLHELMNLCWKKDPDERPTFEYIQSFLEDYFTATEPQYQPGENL
Chain of MAPKAPK2 (human) (P49137 whole entry, looked up): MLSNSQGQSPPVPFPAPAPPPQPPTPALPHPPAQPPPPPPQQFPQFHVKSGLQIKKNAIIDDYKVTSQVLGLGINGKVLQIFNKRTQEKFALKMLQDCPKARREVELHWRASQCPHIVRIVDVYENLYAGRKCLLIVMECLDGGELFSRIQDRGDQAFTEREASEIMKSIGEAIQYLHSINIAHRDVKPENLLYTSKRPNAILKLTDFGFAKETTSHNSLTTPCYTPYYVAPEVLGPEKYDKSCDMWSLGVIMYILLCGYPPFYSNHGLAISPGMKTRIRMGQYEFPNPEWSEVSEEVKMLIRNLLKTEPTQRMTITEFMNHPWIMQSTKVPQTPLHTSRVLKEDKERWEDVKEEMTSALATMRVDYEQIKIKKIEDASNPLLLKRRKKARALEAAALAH

**Q.** What does the source list for `O=C(O)c1cc(N=Nc2ccc(S(=O)(=O)Nc3ccccn3)cc2)ccc1O`?
**A.** residual activity (PKN2 (human); compound 1.0 µM): 94%; residual activity (PKN2 (human); compound 10.0 µM): 90%; residual activity (GCK (human); compound 1.0 µM): 101%; residual activity (GCK (human); compound 10.0 µM): 96%; residual activity (MAPKAPK2 (human); compound 1.0 µM): 100%; residual activity (MAPKAPK2 (human); compound 10.0 µM): 106%; residual activity (INSRR (human); compound 10.0 µM): 80%; residual activity (YES1 (human); compound 1.0 µM): 113%; residual activity (YES1 (human); compound 10.0 µM): 103%; residual activity (EEF2K (human); compound 1.0 µM): 95%; residual activity (EEF2K (human); compound 10.0 µM): 109%; residual activity (STK3 (human); compound 1.0 µM): 94%; residual activity (STK3 (human); compound 10.0 µM): 92%; residual activity (MAP2K1 (human); compound 1.0 µM): 86%; residual activity (MAP2K1 (human); compound 10.0 µM): 91%; residual activity (MAPK9 (human); compound 1.0 µM): 128%; residual activity (MAPK9 (human); compound 10.0 µM): 117%; residual activity (MARK4 (human); compound 1.0 µM): 98%; residual activity (MARK4 (human); compound 10.0 µM): 89%; residual activity (PIM1 (human); compound 1.0 µM): 88%; residual activity (PIM1 (human); compound 10.0 µM): 44%; residual activity (CSNK2A1 (human); compound 1.0 µM): 83%; residual activity (CSNK2A1 (human); compound 10.0 µM): 29%; residual activity (MYLK (human); compound 1.0 µM): 112%; residual activity (MYLK (human); compound 10.0 µM): 99%; residual activity (PAK6 (human); compound 1.0 µM): 99%; residual activity (PAK6 (human); compound 10.0 µM): 99%; residual activity (PIM3 (human); compound 1.0 µM): 63%; residual activity (PIM3 (human); compound 10.0 µM): 18%; residual activity ([1]; compound 1.0 µM): 80%; residual activity ([1]; compound 10.0 µM): 90%; residual activity (IKBKB (human); compound 1.0 µM): 107%; residual activity (IKBKB (human); compound 10.0 µM): 89%; residual activity (TBK1 (human); compound 1.0 µM): 111%; residual activity (TBK1 (human); compound 10.0 µM): 99%; residual activity (CHEK1 (human); compound 1.0 µM): 104%; residual activity (CHEK1 (human); compound 10.0 µM): 109%; residual activity (MAP3K9 (human); compound 1.0 µM): 105%; residual activity (MAP3K9 (human); compound 10.0 µM): 89%; residual activity (RPS6KA5 KD1 KD2 (human); compound 1.0 µM): 109%; residual activity (RPS6KA5 KD1 KD2 (human); compound 10.0 µM): 95%; residual activity (MKNK2 (human); compound 1.0 µM): 76%; residual activity (MKNK2 (human); compound 10.0 µM): 99%; residual activity (CDK2 CCNA2 (human); compound 1.0 µM): 93%; residual activity (CDK2 CCNA2 (human); compound 10.0 µM): 107%; residual activity (TTK (human); compound 1.0 µM): 98%; residual activity (TTK (human); compound 10.0 µM): 88%; residual activity (NEK6 (human); compound 1.0 µM): 98%; residual activity (NEK6 (human); compound 10.0 µM): 97%; residual activity (BTK (human); compound 1.0 µM): 97%; residual activity (BTK (human); compound 10.0 µM): 74%; residual activity ([2]; compound 1.0 µM): 108%; residual activity ([2]; compound 10.0 µM): 94%; residual activity (PIM2 (human); compound 1.0 µM): 98%; residual activity (PIM2 (human); compound 10.0 µM): 77%; residual activity (SRPK1 (human); compound 1.0 µM): 106%; residual activity (SRPK1 (human); compound 10.0 µM): 104%; residual activity (MARK3 (human); compound 1.0 µM): 117%; residual activity (MARK3 (human); compound 10.0 µM): 109%

**Q.** How did the residual activity (PKN2 (human); compound 1.0 µM) turn out when `CN1C(=O)[C@@H](Cc2c[nH]c3ccccc23)NC1=S` was run?
**A.** 91%

**Q.** What about the residual activity (PKN2 (human); compound 10.0 µM) of the same molecule?
**A.** 90%

**Q.** And the residual activity (GCK (human); compound 1.0 µM)?
**A.** 110%

**Q.** And the residual activity (GCK (human); compound 10.0 µM)?
**A.** 89%

**Q.** And the residual activity (MAPKAPK2 (human); compound 1.0 µM)?
**A.** 85%

**Q.** What about the residual activity (MAPKAPK2 (human); compound 10.0 µM) of the same molecule?
**A.** 96%

**Q.** What about the residual activity (INSRR (human); compound 1.0 µM) of the same molecule?
**A.** 81%

**Q.** And the residual activity (INSRR (human); compound 10.0 µM)?
**A.** 87%

**Q.** And the residual activity (YES1 (human); compound 1.0 µM)?
**A.** 107%

**Q.** What about the residual activity (YES1 (human); compound 10.0 µM) of the same molecule?
**A.** 92%

**Q.** And the residual activity (EEF2K (human); compound 1.0 µM)?
**A.** 83%

**Q.** And the residual activity (EEF2K (human); compound 10.0 µM)?
**A.** 75%

**Q.** And the residual activity (STK3 (human); compound 1.0 µM)?
**A.** 94%

**Q.** And the residual activity (STK3 (human); compound 10.0 µM)?
**A.** 104%

**Q.** And the residual activity (MAP2K1 (human); compound 1.0 µM)?
**A.** 85%

**Q.** What about the residual activity (MAP2K1 (human); compound 10.0 µM) of the same molecule?
**A.** 109%

**Q.** What about the residual activity (MAPK9 (human); compound 1.0 µM) of the same molecule?
**A.** 85%

**Q.** What about the residual activity (MAPK9 (human); compound 10.0 µM) of the same molecule?
**A.** 88%

**Q.** What about the residual activity (MARK4 (human); compound 1.0 µM) of the same molecule?
**A.** 98%

**Q.** What about the residual activity (MARK4 (human); compound 10.0 µM) of the same molecule?
**A.** 96%

**Q.** What about the residual activity (PIM1 (human); compound 1.0 µM) of the same molecule?
**A.** 87%

**Q.** And the residual activity (PIM1 (human); compound 10.0 µM)?
**A.** 94%

**Q.** And the residual activity (CSNK2A1 (human); compound 1.0 µM)?
**A.** 95%

**Q.** What about the residual activity (CSNK2A1 (human); compound 10.0 µM) of the same molecule?
**A.** 87%

**Q.** What about the residual activity (MYLK (human); compound 1.0 µM) of the same molecule?
**A.** 83%

**Q.** And the residual activity (MYLK (human); compound 10.0 µM)?
**A.** 81%

**Q.** What about the residual activity (PAK6 (human); compound 1.0 µM) of the same molecule?
**A.** 93%

**Q.** And the residual activity (PAK6 (human); compound 10.0 µM)?
**A.** 99%

**Q.** And the residual activity (PIM3 (human); compound 1.0 µM)?
**A.** 88%

**Q.** And the residual activity (PIM3 (human); compound 10.0 µM)?
**A.** 85%

**Q.** What about the residual activity ([1]; compound 1.0 µM) of the same molecule?
**A.** 83%

**Q.** What about the residual activity ([1]; compound 10.0 µM) of the same molecule?
**A.** 99%

**Q.** And the residual activity (IKBKB (human); compound 1.0 µM)?
**A.** 95%

**Q.** And the residual activity (IKBKB (human); compound 10.0 µM)?
**A.** 96%

**Q.** What about the residual activity (TBK1 (human); compound 1.0 µM) of the same molecule?
**A.** 87%

**Q.** What about the residual activity (TBK1 (human); compound 10.0 µM) of the same molecule?
**A.** 96%

**Q.** What about the residual activity (CHEK1 (human); compound 1.0 µM) of the same molecule?
**A.** 109%

**Q.** And the residual activity (CHEK1 (human); compound 10.0 µM)?
**A.** 103%

**Q.** And the residual activity (MAP3K9 (human); compound 1.0 µM)?
**A.** 100%

**Q.** And the residual activity (MAP3K9 (human); compound 10.0 µM)?
**A.** 96%

**Q.** And the residual activity (RPS6KA5 KD1 KD2 (human); compound 1.0 µM)?
**A.** 78%

**Q.** And the residual activity (RPS6KA5 KD1 KD2 (human); compound 10.0 µM)?
**A.** 90%

**Q.** And the residual activity (MKNK2 (human); compound 1.0 µM)?
**A.** 106%

**Q.** What about the residual activity (MKNK2 (human); compound 10.0 µM) of the same molecule?
**A.** 102%

**Q.** What about the residual activity (CDK2 CCNA2 (human); compound 1.0 µM) of the same molecule?
**A.** 77%

**Q.** And the residual activity (CDK2 CCNA2 (human); compound 10.0 µM)?
**A.** 93%

**Q.** What about the residual activity (TTK (human); compound 1.0 µM) of the same molecule?
**A.** 98%

**Q.** And the residual activity (TTK (human); compound 10.0 µM)?
**A.** 106%

**Q.** And the residual activity (NEK6 (human); compound 1.0 µM)?
**A.** 89%

**Q.** What about the residual activity (NEK6 (human); compound 10.0 µM) of the same molecule?
**A.** 119%

**Q.** What about the residual activity (BTK (human); compound 1.0 µM) of the same molecule?
**A.** 99%

**Q.** And the residual activity (BTK (human); compound 10.0 µM)?
**A.** 89%

**Q.** What about the residual activity ([2]; compound 1.0 µM) of the same molecule?
**A.** 102%

**Q.** What about the residual activity ([2]; compound 10.0 µM) of the same molecule?
**A.** 94%

**Q.** And the residual activity (PIM2 (human); compound 1.0 µM)?
**A.** 95%

**Q.** And the residual activity (PIM2 (human); compound 10.0 µM)?
**A.** 105%

**Q.** And the residual activity (SRPK1 (human); compound 1.0 µM)?
**A.** 93%

**Q.** What about the residual activity (SRPK1 (human); compound 10.0 µM) of the same molecule?
**A.** 89%

**Q.** And the residual activity (MARK3 (human); compound 1.0 µM)?
**A.** 94%

**Q.** And the residual activity (MARK3 (human); compound 10.0 µM)?
**A.** 98%
